Assay results as given in patent publication US11458079B2, “Sunscreen cosmetic” (JO COSMETICS CO., LTD., priority 2019, dated 2022).
“Also recorded” adds a separate entry of the source.

Assay: Dissolution in the aqueous phase (C phase) of the O/W cosmetic composition
Type: physicochemical
Settings: 5.00 mass % in C phase (aqueous phase) of O/W formulation of Comparative Example 4
Excerpt: (4) The gel emulsion was mixed with the components of C phase (aqueous phase), thereby preparing an O/W cosmetic composition. […] Hydrophobized fine particle titanium oxide” alone, the sunscreen cosmetic of Comparative Example 3 simultaneously containing “9. Trans-resveratrol aglycone,” which was not a polysaccharide, and “7. […] Since it is generally difficult to apply the formulation that could not be produced in such a small lot experiment to mass production, the production of emulsified cosmetic compositions for use in sunscreen containing trans-resveratrol monosaccharide glycoside turned out to be impractical.

In the case of `OC[C@H]1O[C@@H](Oc2cc(O)cc(/C=C/c3ccc(O)cc3)c2)[C@H](O)[C@@H](O)[C@@H]1O` [piceid, Piceid], the “Solubility in the aqueous phase / water solubility” value is reported as “could not be dissolved; also recorded: insufficient” and the “Solubility in the aqueous phase / water solubility” value (listed as resveratrol monosaccharide glycoside) is reported as “could not be dissolved uniformly”.
